Patent US20240132431A1, “METHOD FOR ALKYLATING ACIDIC FUNCTIONAL GROUP” (Chugai Seiyaku Kabushiki Kaisha, priority 2021, published 2024)
Values belong to the compound of their own block, whether it stands above or below them.

Target: T1, Bcl-2 protein (Recombinant Human Bcl-2 Protein) (Homo sapiens, UniProt P10415)
T1 construct: purchased Novus NBP2-34889
Assay: Binding evaluation of mixture library compounds to Bcl-2 using AS-MS (affinity selection mass spectrometry)
Conditions: for ASMS ratio (%) n = 1 / ASMS ratio (%) n = 2: ASMS Ratio(%)=(A−C)/B×100; for ASMS ratio (%) n = 1: replicate n = 1; for ASMS ratio (%) n = 2: replicate n = 2
Outline: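 Affinity selection MS: Bcl-2 20 μM + 1200-cpd mixture, […]/cpd, Tris pH 7.4 buffer w/ Tween-20, DTT; 1 h 23° C dark; P-2 spin SEC; MeCN/MeOH extraction; RP LC/MS. ASMS Ratio(%) = (A−C)/B×100.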

[1] = AS-MS, mixture of 1200 compounds, Bcl-2
[2] = AS-MS on the mixture of 1200 library compounds

T1 sequence (P10415 whole entry): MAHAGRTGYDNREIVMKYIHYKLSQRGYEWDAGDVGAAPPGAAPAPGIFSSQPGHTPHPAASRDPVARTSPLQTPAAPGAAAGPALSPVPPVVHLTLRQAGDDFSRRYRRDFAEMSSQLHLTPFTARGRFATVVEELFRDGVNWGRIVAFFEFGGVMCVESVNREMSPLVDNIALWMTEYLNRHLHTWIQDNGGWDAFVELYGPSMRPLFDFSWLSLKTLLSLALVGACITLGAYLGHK

ASMS ratio (%) n = 1 [1]: 13.2% | ASMS ratio (%) n = 2 [1]: 4.8%
Compound: CCOc1cccc(-c2ccc(CN3CCN(c4ccc(C(=O)NCC56CC7CC(CC(C7)C5)C6)cc4)CC3)c(OC)c2)c1 [B1A053-01, N-(1-Adamantylmethyl)-4-[4-[[4-(3-ethoxyphenyl)-2-methoxyphenyl]methyl]piperazin-1-yl]benzamide]

Compound: 4-[4-[5-[2-(5-Ethoxypyridin-3-yl)ethynyl]pyridine-3-carbonyl]piperazin-1-yl]-N-propylbenzamide [B1M057-01]
ASMS ratio (%) n = 1 [1]: −0.7% | ASMS ratio (%) n = 2 [1]: 1.4%

Compound: CCOc1cncc(-c2ccc(CN3CCN(c4ccc(C(=O)N(CC)CC)cc4)CC3)cc2F)c1 [B4J052-01]
ASMS ratio (%) n = 1 [2]: 0.5% | ASMS ratio (%) n = 2 [2]: −1.5%

ASMS ratio (%) (n = 1): 0.0% | ASMS ratio (%) (n = 2): 0.0%
Compound: CCOc1cccc(-c2cc(OC)c(CN3CCN(c4ccc(C(=O)NS(=O)(=O)CCC(F)(F)F)nn4)CC3)c(OC)c2)c1 [B2N085-01]

Compound: CCOc1cccc(-c2cc(CN3CCN(c4ccc(C(=O)NS(=O)(=O)CCC(F)(F)F)cc4)CC3)cc(C(F)(F)F)c2)c1 [B2N061-01]
ASMS ratio (%) (n = 1): 0.0% | ASMS ratio (%) (n = 2): 0.0%

ASMS ratio (%) (n = 1): 0.0% | ASMS ratio (%) (n = 2): 0.0%
Compound: CCOc1cncc(-c2cc(CN3CCN(c4ccc(C(=O)NS(=O)(=O)c5ccc(NCCSc6ccccc6)c(C(F)(F)F)c5)cc4)CC3)cc(C(F)(F)F)c2)c1 [B2R062-01, 4-[4-[[3-(5-Ethoxypyridin-3-yl)-5-(trifluoromethyl)phenyl]methyl]piperazin-1-yl]-N-[4-(2-phenylsulfanylethylamino)-3-(trifluoromethyl)phenyl]sulfonylbenzamide]

ASMS ratio (%) n = 1 [1]: 0.9% | ASMS ratio (%) n = 2 [1]: 0.0%
Compound: CCCNC(=O)c1ccc(N2CCN(Cc3ccccc3C#Cc3cncc(OCC)c3)CC2)cc1 [B1M054-01]

ASMS ratio (%) n = 2 [2]: 421.3%
Compound: CCOc1cccc(-c2cc(CN3CCN(c4ccc(C(=O)N(C)CC56CC7CC(CC(C7)C5)C6)cc4)CC3)cc(C(F)(F)F)c2)c1 [B3A061-01, N-(1-Adamantylmethyl)-4-[4-[[3-(3-ethoxyphenyl)-5-(trifluoromethyl)phenyl]methyl]piperazin-1-yl]-N-methylbenzamide]

ASMS ratio (%) (n = 1): 0.0% | ASMS ratio (%) (n = 2): 0.0%
Compound: CCOc1cncc(-c2cc(CN3CCN(c4ccc(C(=O)NS(C)(=O)=O)nn4)CC3)cc(OC(F)(F)F)c2)c1 [B2I090-01, 6-[4-[[3-(5-Ethoxypyridin-3-yl)-5-(trifluoromethoxy)phenyl]methyl]piperazin-1-yl]-N-methylsulfonylpyridazine-3-carboxamide]

Compound: CCOc1cccc(-c2ccc(CN3CCN(c4ccc(C(=O)NS(=O)(=O)CCC(F)(F)F)cc4)CC3)c3ccccc23)c1 [B2N065-01]
ASMS ratio (%) (n = 1): 0.0% | ASMS ratio (%) (n = 2): 0.0%

ASMS ratio (%) (n = 1): 0.0% | ASMS ratio (%) (n = 2): 0.0%
Compound: CCOc1cccc(-c2csc(C(=O)N3CCN(c4ccc(C(=O)NS(=O)(=O)CCC(F)(F)F)cc4)CC3)c2)c1 [B2N023-01, 4-[4-[4-(3-Ethoxyphenyl)thiophene-2-carbonyl]piperazin-1-yl]-N-(3,3,3-trifluoropropylsulfonyl)benzamide]

ASMS ratio (%) (n = 1): 2.6% | ASMS ratio (%) (n = 2): −1.2%
Compound: CCOc1cncc(-c2cc(CN3CCN(c4ccc(C(=O)NS(=O)(=O)C(C)(C)C)nn4)CC3)cc(OCC)c2)c1 [B2L082-01, N-tert-Butylsulfonyl-6-[4-[[3-ethoxy-5-(5-ethoxypyridin-3-yl)phenyl]methyl]piperazin-1-yl]pyridazine-3-carboxamide]

ASMS ratio (%) (n = 1): 24.0% | ASMS ratio (%) (n = 2): 0.0%
Compound: CCOc1cccc(-c2ccc(CN3CCN(c4ccc(C(=O)NS(=O)(=O)c5ccc(NCCSc6ccccc6)c(C(F)(F)F)c5)nn4)CC3)cc2C)c1 [B2R073-01, 6-[4-[[4-(3-Ethoxyphenyl)-3-methylphenyl]methyl]piperazin-1-yl]-N-[4-(2-phenylsulfanylethylamino)-3-(trifluoromethyl)phenyl]sulfonylpyridazine-3-carboxamide]

ASMS ratio (%) (n = 1): 0.0% | ASMS ratio (%) (n = 2): 0.0%
Compound: CCOc1cncc(C#Cc2ccccc2CN2CCN(c3ccc(C(=O)NS(=O)(=O)CCC(F)(F)F)cc3)CC2)c1 [B2N070-01, 4-[4-[[2-[2-(5-Ethoxypyridin-3-yl)ethynyl]phenyl]methyl]piperazin-1-yl]-N-(3,3,3-trifluoropropylsulfonyl)benzamide]

ASMS ratio (%) n = 1 [1]: 5.9% | ASMS ratio (%) n = 2 [1]: −5.6%
Compound: CCOc1cccc(-c2ccc(CN3CCN(c4ccc(C(=O)NCC(F)(F)F)cc4)CC3)c3ccccc23)c1 [B1K065-01, 4-[4-[[4-(3-Ethoxyphenyl)naphthalen-1-yl]methyl]piperazin-1-yl]-N-(2,2,2-trifluoroethyl)benzamide]

ASMS ratio (%) n = 1 [2]: 2.8% | ASMS ratio (%) n = 2 [2]: −3.3%
Compound: CCOc1cncc(-c2ccc(C(=O)N3CCN(c4ccc(C(=O)N(C)CC56CC7CC(CC(C7)C5)C6)cc4)CC3)c3ccccc23)c1 [B3A036-01, N-(1-Adamantylmethyl)-4-[4-[4-(5-ethoxypyridin-3-yl)naphthalene-1-carbonyl]piperazin-1-yl]-N-methylbenzamide]

ASMS ratio (%) n = 1 [1]: 3.3% | ASMS ratio (%) n = 2 [1]: −5.0%
Compound: CCOc1cccc(-c2cc(C(=O)N3CCN(c4ccc(C(=O)NCC56CC7CC(CC(C7)C5)C6)cc4)CC3)cc(C(C)(C)C)c2)c1 [B1A037-01, N-(1-Adamantylmethyl)-4-[4-[3-tert-butyl-5-(3-ethoxyphenyl)benzoyl]piperazin-1-yl]benzamide]

ASMS ratio (%) n = 1 (AS-MS, mixture library, Bcl-2): 3.9% | ASMS ratio (%) n = 2 (AS-MS, mixture library, Bcl-2): 0.4%
Compound: CCOc1cccc(-c2cc(CN3CCN(c4ccc(C(=O)N(CC)CC)nn4)CC3)cc(OC(F)(F)F)c2)c1 [B4J089-01, 6-[4-[[3-(3-Ethoxyphenyl)-5-(trifluoromethoxy)phenyl]methyl]piperazin-1-yl]-N,N-diethylpyridazine-3-carboxamide]

ASMS ratio (%) (n = 1): −3.7% | ASMS ratio (%) (n = 2): 1.2%
Compound: CCOc1cccc(-c2ccc(C(=O)N3CCN(c4ccc(C(=O)NS(=O)(=O)c5ccc(NCCSc6ccccc6)c(C(F)(F)F)c5)cc4)CC3)cc2F)c1 [B2R027-01, 4-[4-[4-(3-Ethoxyphenyl)-3-fluorobenzoyl]piperazin-1-yl]-N-[4-(2-phenylsulfanylethylamino)-3-(trifluoromethyl)phenyl]sulfonylbenzamide]

ASMS ratio (%) n = 1 [2]: 2.8% | ASMS ratio (%) n = 2 [2]: 0.4%
Compound: CCOc1cncc(-c2ccc(C(=O)N3CCN(c4ccc(C(=O)Nc5ccc(OC)cc5)nn4)CC3)cc2C)c1 [B1O004-01, 6-[4-[4-(5-Ethoxypyridin-3-yl)-3-methylbenzoyl]piperazin-1-yl]-N-(4-methoxyphenyl)pyridazine-3-carboxamide]

ASMS ratio (%) n = 1 (AS-MS, mixture library, Bcl-2): 0.0% | ASMS ratio (%) n = 2 (AS-MS, mixture library, Bcl-2): −3.7%
Compound: CCOc1cccc(C#Cc2cc(C(=O)N3CCN(c4ccc(C(=O)NS(=O)(=O)CC56CC7CC(CC(C7)C5)C6)cc4)CC3)cc(C(F)(F)F)c2)c1 [B2A041-01, N-(1-Adamantylmethylsulfonyl)-4-[4-[3-[2-(3-ethoxyphenyl)ethynyl]-5-(trifluoromethyl)benzoyl]piperazin-1-yl]benzamide]

ASMS ratio (%) n = 1 (AS-MS, mixture library, Bcl-2): 0.0% | ASMS ratio (%) n = 2 (AS-MS, mixture library, Bcl-2): 0.0%
Compound: CCOc1cccc(-c2ccccc2CCC(=O)N2CCN(c3ccc(C(=O)NS(C)(=O)=O)nn3)CC2)c1 [B2I011-01, 6-[4-[3-[2-(3-Ethoxyphenyl)phenyl]propanoyl]piperazin-1-yl]-N-methylsulfonylpyridazine-3-carboxamide]
